The values that follow come from article PMC9572942, “The Discovery of Small Allosteric and Active Site Inhibitors of the SARS-CoV-2 Main Protease via Structure-Based Virtual Screening and Biological Evaluation” (Molecules, 2022).

Common to all, as to assay type: biochemical
The target in test [1] is T1, SARS-CoV-2 M^pro enzyme (Severe acute respiratory syndrome coronavirus 2, UniProt P0DTD1). Description: Inhibition kinetic study (Lineweaver–Burk, FRET assay). The following applies: for inhibition mechanism: Lineweaver–Burk plot; for Ki: from slope of Lineweaver–Burk curves vs. inhibitor concentration, read-out: Ki.
Test [2] deals with T1, SARS-CoV-2 M^pro enzyme. Description: Promiscuity tests (pre-incubation, 10-fold enzyme concentration, BSA buffer). The following applies: 100 μM compound.
Test [3] concerns the target T1, SARS-CoV-2 M^pro enzyme. Nature of the test: FRET-based enzyme assay and IC50 determination. The following applies: for IC50: 4.6 μM enzyme, HEPES pH 6.5, read-out: IC50; for inhibition at 100 µM: 100 μM compound, in Figure 5; for inhibition at 200 µM: 200 μM compound.
[4] abbreviates: 4.6 μM enzyme, read-out: Inhibition % at 100 μM at 4.6 μM enzyme concentration.
[5] abbreviates: 46 μM enzyme (10-fold), read-out: Inhibition % at 100 μM at 46 μM enzyme concentration.
Where [6] appears, read: 15 min pre-incubation with enzyme, read-out: Inhibition % at 100 μM with 15 min pre-incubation.
[7] abbreviates: no BSA, read-out: Inhibition % at 100 μM without BSA in assay buffer.
Setting [8] is: pre-incubation test, read-out: Inhibition % at 100 μM without pre-incubation.
Setting [9] is: read-out: Inhibition % at 100 μM with BSA in assay buffer, BSA in 20 mM HEPES pH 6.5, read-out: Inhibition % at 100 μM with 1g/mL BSA in assay buffer.

By Ki is commonly meant the equilibrium dissociation constant of an inhibitor or competing ligand from its target. By IC50 is commonly meant the concentration at which inhibition is half-maximal.

“And” between values parts separate entries of the source, which are not always exact repeats. Equal entries are not always repeated. “Also recorded” adds a separate entry of the source.

Turning to `CN(CCCO)c1cc2c3c(cccc3n1)C(=O)c1ccccc1-2` [GR04], the inhibition mechanism result in test [1] is recorded as “noncompetitive model; also recorded: noncompetitive inhibition mechanism”. Besides, the Ki in test [1] came out at 298 µM. The inhibition at 100 µM in test [2] (setting [4]) was 33.5%; in test [2] (setting [5]), 33.9%; in test [2] (setting [6]) it was 34.3%; in test [2] (setting [7]), 33%; in test [2] (setting [8]), 35.4%; in test [2] (setting [9]), 35%. Moreover, the inhibition at 100 µM in test [3] was 35%. Moreover, in test [3], the IC50 was 346 ± 10 µM. In test [3], the inhibition at 200 µM turned out to be 61%.
In the case of `O=C(CSc1cnc2ccccc2n1)NC1CCCC1` [CB03], the inhibition mechanism result in test [1] was “competitive mechanism”. Moreover, the inhibition at 100 µM in test [2] (setting [4]) came out at 15%; in test [2] (setting [5]), 13.1%; in test [2] (setting [6]), 14.2%; in test [2] (setting [7]), 15.5%; in test [2] (setting [8]) it was 15.1%; in test [2] (setting [9]), 17.3%.
For the compound `COC(=O)C1C(O)=C2C(=CC1C)Nc1ccccc1NC2c1ccc2ccccc2c1` (stereo not shown) [CD06], the IC50 in test [3] was 226 ± 17.5 µM.
Take `CCCc1nc2c(o1)OC(N)=C(C#N)[C@H]2c1cccc(O)c1` [GR20]: the inhibition mechanism entry in test [1] is listed as “mix inhibition model; also recorded: mixed inhibition mode”. In addition, in test [1], the Ki is 89 µM. Besides, the inhibition at 100 µM in test [2] (setting [4]) was determined as 48.6%; in test [2] (setting [5]), 48%; in test [2] (setting [7]) it was 50%; in test [2] (setting [9]), 51.4%. Besides, the IC50 in test [3] is 92 µM and 91.8 µM.
In test [3], `O=C(NC1CCNCC1)c1[nH]ncc1NC(=O)c1c(Cl)cccc1Cl` [AT7519, reference compound] came in with an inhibition at 100 µM of 8% and an inhibition at 200 µM of 18%.
